The compounds below were run against T1, CIB1 and αIIb interaction (CIB1-GST : F-αIIb peptide) (Homo sapiens, UniProt Q99828) (assay: FP assay, 1536-well qHTS format (primary and confirmatory screen)). Settings: Table S3, confirmatory screen, qHTS curve class; a negative sign marks inhibitory curves.
T1 construct: made in house; host or cells: BL-21 plus RIL cells (E. coli)
T1 sequence (Q99828 1-191): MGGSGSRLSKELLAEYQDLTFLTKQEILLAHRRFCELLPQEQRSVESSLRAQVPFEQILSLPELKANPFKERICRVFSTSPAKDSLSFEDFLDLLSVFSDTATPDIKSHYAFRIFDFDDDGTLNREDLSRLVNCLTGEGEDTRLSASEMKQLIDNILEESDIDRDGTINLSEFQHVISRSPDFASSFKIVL
Type: binding

| Curve Class (confirmatory screen) | SMILES |
| --- | --- |
| 4 | CC(=O)NC(Cc1ccccc1)C(=O)O (stereo not shown) [NCGC00042134-05] |

Same assay, conditions: Table S3, confirmatory screen; negative = inhibition

| Efficacy (%) (confirmatory screen) | SMILES |
| --- | --- |
| 0 | CC(=O)NC(Cc1ccccc1)C(=O)O (stereo not shown) [NCGC00042134-05] |

Same assay, conditions: confirmatory screen

| SMILES | Efficacy (%) (confirmatory screen) |
| --- | --- |
| O=c1[nH]c(=O)c2nc3ccccc3nc2[nH]1 [NCGC00015021-05] | -58 |
| COc1ccc2c(c[n+](C)c3c4cc5c(cc4ccc23)OCO5)c1OC.[Cl-] [NCGC00015225-03] | -56 |
| C=CC1=C(C)c2cc3[nH]c(cc4nc(cc5[nH]c(cc1n2)c(C)c5CCC(=O)O)C(CCC(=O)O)=C4C)c(C)c3C=C [NCGC00015844-07] | -112 |
| O=c1c(O)c(-c2ccc(O)c(O)c2)oc2cc(O)cc(O)c12 [NCGC00015870-16] | -32 |
| Cl.N=C(NCCCCCCNC(=N)NC(=N)Nc1ccc(Cl)cc1)NC(=N)Nc1ccc(Cl)cc1 [NCGC00016246-13] | -57 |

Same assay, conditions: confirmatory screen, YES/NO

| SMILES | Confirm? (confirmatory screen) |
| --- | --- |
| O=c1[nH]c(=O)c2nc3ccccc3nc2[nH]1 [NCGC00015021-05] | YES |
| COc1ccc2c(c[n+](C)c3c4cc5c(cc4ccc23)OCO5)c1OC.[Cl-] [NCGC00015225-03] | YES |
| C=CC1=C(C)c2cc3[nH]c(cc4nc(cc5[nH]c(cc1n2)c(C)c5CCC(=O)O)C(CCC(=O)O)=C4C)c(C)c3C=C [NCGC00015844-07] | YES |
| O=c1c(O)c(-c2ccc(O)c(O)c2)oc2cc(O)cc(O)c12 [NCGC00015870-16] | YES |
| Cl.N=C(NCCCCCCNC(=N)NC(=N)Nc1ccc(Cl)cc1)NC(=N)Nc1ccc(Cl)cc1 [NCGC00016246-13] | YES |

Same assay, conditions: confirmatory screen, qHTS curve class; negative sign = inhibitory curve

| SMILES | Curve Class (confirmatory screen) |
| --- | --- |
| O=c1[nH]c(=O)c2nc3ccccc3nc2[nH]1 [NCGC00015021-05] | -2.2 |
| COc1ccc2c(c[n+](C)c3c4cc5c(cc4ccc23)OCO5)c1OC.[Cl-] [NCGC00015225-03] | -1.4 |
| C=CC1=C(C)c2cc3[nH]c(cc4nc(cc5[nH]c(cc1n2)c(C)c5CCC(=O)O)C(CCC(=O)O)=C4C)c(C)c3C=C [NCGC00015844-07] | -1.1 |
| O=c1c(O)c(-c2ccc(O)c(O)c2)oc2cc(O)cc(O)c12 [NCGC00015870-16] | -2.4 |
| Cl.N=C(NCCCCCCNC(=N)NC(=N)Nc1ccc(Cl)cc1)NC(=N)Nc1ccc(Cl)cc1 [NCGC00016246-13] | -2.2 |

Same assay, conditions: confirmatory screen; read-out: IC50 [μM] (confirmatory screen)

| SMILES | IC50 [µM] |
| --- | --- |
| O=c1[nH]c(=O)c2nc3ccccc3nc2[nH]1 [NCGC00015021-05] | 44.7 |
| COc1ccc2c(c[n+](C)c3c4cc5c(cc4ccc23)OCO5)c1OC.[Cl-] [NCGC00015225-03] | 11.2 |
| C=CC1=C(C)c2cc3[nH]c(cc4nc(cc5[nH]c(cc1n2)c(C)c5CCC(=O)O)C(CCC(=O)O)=C4C)c(C)c3C=C [NCGC00015844-07] | 25.1 |
| Cl.N=C(NCCCCCCNC(=N)NC(=N)Nc1ccc(Cl)cc1)NC(=N)Nc1ccc(Cl)cc1 [NCGC00016246-13] | 35.5 |

Same assay, conditions: qHTS FP screen hits, Table S2; negative = inhibition

| Efficacy (%) | SMILES |
| --- | --- |
| -54 | O=c1[nH]c(=O)c2nc3ccccc3nc2[nH]1 [NCGC00015021-05] |
| -37 | Cl.N=C(NCCCCCCNC(=N)NC(=N)Nc1ccc(Cl)cc1)NC(=N)Nc1ccc(Cl)cc1 [NCGC00016246-13] |
| -47 | CC(=O)NC(Cc1ccccc1)C(=O)O (stereo not shown) [NCGC00042134-05] |

Same assay, conditions: qHTS FP screen hits, Table S2; one class per curve where COUNT > 1; negative sign = inhibitory curve

| Curve Class | SMILES |
| --- | --- |
| -2.2 | Cl.N=C(NCCCCCCNC(=N)NC(=N)Nc1ccc(Cl)cc1)NC(=N)Nc1ccc(Cl)cc1 [NCGC00016246-13] |
| -2.2 | CC(=O)NC(Cc1ccccc1)C(=O)O (stereo not shown) [NCGC00042134-05] |

Same assay, conditions: qHTS FP screen hits, Table S2; read-out: IC50

| IC50 [µM] | SMILES |
| --- | --- |
| 33.5 | O=c1[nH]c(=O)c2nc3ccccc3nc2[nH]1 [NCGC00015021-05] |
| 50.1 | Cl.N=C(NCCCCCCNC(=N)NC(=N)Nc1ccc(Cl)cc1)NC(=N)Nc1ccc(Cl)cc1 [NCGC00016246-13] |
| 100 | CC(=O)NC(Cc1ccccc1)C(=O)O (stereo not shown) [NCGC00042134-05] |

These compounds were tested against T2, GST-CIB1 : F-scrambled peptide (Homo sapiens, UniProt Q99828) (assay: FP scrambled-peptide counter screen, 1536-well format). Settings: Table S3, counterscreen, qHTS curve class; a negative sign marks inhibitory curves.
T2 construct: made in house; host or cells: BL-21 plus RIL cells (E. coli)
T2 sequence (Q99828 1-191): T1 sequence (Q99828 1-191)
Type: binding

| Curve Class (counterscreen) | SMILES |
| --- | --- |
| 4 | CC(=O)NC(Cc1ccccc1)C(=O)O (stereo not shown) [NCGC00042134-05] |

Same assay, conditions: Table S3, counterscreen; negative = inhibition

| Efficacy (%) (counterscreen) | SMILES |
| --- | --- |
| -35 | CC(=O)NC(Cc1ccccc1)C(=O)O (stereo not shown) [NCGC00042134-05] |

Same assay, conditions: counterscreen

| SMILES | Efficacy (%) (counterscreen) |
| --- | --- |
| O=c1[nH]c(=O)c2nc3ccccc3nc2[nH]1 [NCGC00015021-05] | -65 |
| COc1ccc2c(c[n+](C)c3c4cc5c(cc4ccc23)OCO5)c1OC.[Cl-] [NCGC00015225-03] | -55 |
| C=CC1=C(C)c2cc3[nH]c(cc4nc(cc5[nH]c(cc1n2)c(C)c5CCC(=O)O)C(CCC(=O)O)=C4C)c(C)c3C=C [NCGC00015844-07] | -94 |
| O=c1c(O)c(-c2ccc(O)c(O)c2)oc2cc(O)cc(O)c12 [NCGC00015870-16] | -31 |
| Cl.N=C(NCCCCCCNC(=N)NC(=N)Nc1ccc(Cl)cc1)NC(=N)Nc1ccc(Cl)cc1 [NCGC00016246-13] | -37 |

Same assay, conditions: counterscreen, YES/NO

| SMILES | Confirm? (counterscreen) |
| --- | --- |
| O=c1c(O)c(-c2ccc(O)c(O)c2)oc2cc(O)cc(O)c12 [NCGC00015870-16] | YES |

Same assay, conditions: counterscreen, qHTS curve class; negative sign = inhibitory curve

| SMILES | Curve Class (counterscreen) |
| --- | --- |
| O=c1[nH]c(=O)c2nc3ccccc3nc2[nH]1 [NCGC00015021-05] | -2.2 |
| COc1ccc2c(c[n+](C)c3c4cc5c(cc4ccc23)OCO5)c1OC.[Cl-] [NCGC00015225-03] | -2.2 |
| C=CC1=C(C)c2cc3[nH]c(cc4nc(cc5[nH]c(cc1n2)c(C)c5CCC(=O)O)C(CCC(=O)O)=C4C)c(C)c3C=C [NCGC00015844-07] | -2.2 |
| O=c1c(O)c(-c2ccc(O)c(O)c2)oc2cc(O)cc(O)c12 [NCGC00015870-16] | 4 |
| Cl.N=C(NCCCCCCNC(=N)NC(=N)Nc1ccc(Cl)cc1)NC(=N)Nc1ccc(Cl)cc1 [NCGC00016246-13] | -1.2 |

Same assay, conditions: counterscreen; read-out: IC50 [μM] (counterscreen)

| SMILES | IC50 [µM] |
| --- | --- |
| O=c1[nH]c(=O)c2nc3ccccc3nc2[nH]1 [NCGC00015021-05] | 35.5 |
| COc1ccc2c(c[n+](C)c3c4cc5c(cc4ccc23)OCO5)c1OC.[Cl-] [NCGC00015225-03] | 28.2 |
| C=CC1=C(C)c2cc3[nH]c(cc4nc(cc5[nH]c(cc1n2)c(C)c5CCC(=O)O)C(CCC(=O)O)=C4C)c(C)c3C=C [NCGC00015844-07] | 25.1 |
| Cl.N=C(NCCCCCCNC(=N)NC(=N)Nc1ccc(Cl)cc1)NC(=N)Nc1ccc(Cl)cc1 [NCGC00016246-13] | 22.4 |

Reference: article PMC11249646, “Small-Molecule Disruptors of the Interaction between Calcium- and Integrin-Binding Protein 1 and Integrin αIIbβ3 as Novel Antiplatelet Agents” (ACS Pharmacology & Translational Science, 2024)
